The source of these data is PubChem BioAssay AID1996.

Converted amounts (≈) assume the structure as drawn.

What is called kinetic solubility is the concentration staying in solution when a stock, usually in DMSO, is diluted into the medium.

The conditions of the series: buffer; pH 7.4; 200.0 µM.
In the case of `COc1ccc(OC)c(/C=C/C(=O)OCC(=O)N2C(C)CCCC2C)c1` (centres undefined), the kinetic solubility stood at 44.1 µg/mL (≈ 122 µM).

Compound `CCOC(=O)CCNC(=O)N1CCCC(C(=O)c2ccccc2SC)C1` (centres undefined) showed a kinetic solubility greater than 56.8 µg/mL.

`CC(=O)Nc1ccc(S(=O)(=O)Nc2cc(Cl)ccc2N2CCOCC2)cc1` yielded a kinetic solubility greater than 61.5 µg/mL.

`O=C(/C=C/c1ccc([N+](=O)[O-])cc1)/C=C/c1ccco1` yielded a kinetic solubility of 3.1 µg/mL (≈ 11.5 µM).

In the case of `O=C(Nc1cccc(NC(=O)C2CCCO2)c1)C1CCCO1` (centres undefined), the kinetic solubility is greater than 45.7 µg/mL.

For the compound `O=C(CN1C(=O)COc2ccc(Cl)cc21)Nc1ccccn1`, the kinetic solubility came out at 17 µg/mL (≈ 53.5 µM).

As to `CCOC(=O)Cc1csc(NC(=O)c2ccc(C)cc2)n1`, the kinetic solubility was determined as 45.6 µg/mL (≈ 150 µM).

Turning to `CN(Cc1ccccc1)Cc1c(O)ccc2ccccc12`, the solubility (kinetic) is 26.6 µg/mL (≈ 95.9 µM).

The compound `N#C/C(=C/c1ccc(F)cc1)S(=O)(=O)c1ccccc1` had a solubility (kinetic) of 37.5 µg/mL (≈ 131 µM).

Consider `Fc1cc(Cl)ccc1NC(=S)NCCN1CCOCC1`, for which the solubility (kinetic) was greater than 47.7 µg/mL.

With `CC1SCC(NC(=O)c2ccccc2Cl)CS1` (centres undefined), the solubility (kinetic) is greater than 43.2 µg/mL.

Regarding `Cn1ncc2c(=O)[nH]cnc21`, the kinetic solubility is greater than 22.5 µg/mL.

With `Cc1ccccc1NS(=O)(=O)c1csc(C(N)=O)c1`, the solubility (kinetic) is greater than 44.5 µg/mL.

On to `CC(C)CN(C(=O)CSc1nc2ccccc2c(=O)[nH]1)c1c(N)n(CC(C)C)c(=O)[nH]c1=O`, for which the solubility (kinetic) was 10.5 µg/mL (≈ 22.2 µM).

With `CCCCC(=O)Nc1ccc(NCc2ccc(C)s2)cc1`, the kinetic solubility worked out at 16 µg/mL (≈ 52.9 µM).

The compound `CSc1ccccc1-c1nc(-c2ccncc2)no1` registered a solubility (kinetic) of 1.2 µg/mL (≈ 4.46 µM).

In turn, `O=C(O)CN1C(=O)c2cccc3c(Br)ccc1c23` showed a solubility (kinetic) greater than 45.9 µg/mL.

Turning to `N#Cc1cc([N+](=O)[O-])ccc1NC(=O)COC(=O)CN1C(=O)C2CCCCC2C1=O` (centres undefined), the solubility (kinetic) is greater than 62.2 µg/mL.

In turn, `COc1ccc(CNC(=O)N2CCc3ccccc3C2)cc1` came in with a solubility (kinetic) greater than 44.5 µg/mL.

Take `Cc1cc(N2Cc3ccccc3C2)ccc1C=O`: the solubility (kinetic) stood at 7.1 µg/mL (≈ 29.9 µM).

As for `CCOC(=O)Cc1csc(NC(=O)CCc2ccccc2)n1`, the solubility (kinetic) turned out to be 41 µg/mL (≈ 129 µM).

On to `Cc1ccc(C(=O)N2C(=O)c3cccc(N)c3C2=O)o1`, for which the kinetic solubility came out at 3.9 µg/mL (≈ 14.4 µM).

Compound `CCOC(=O)C1=C(C)OC(N)=C(C#N)C1c1cccc(C)c1` (centres undefined) gave a solubility (kinetic) of 43.7 µg/mL (≈ 146 µM).

In turn, `Cc1cc(NC(=O)CN2C(=O)c3ccccc3S2(=O)=O)no1` showed a solubility (kinetic) of 32.7 µg/mL (≈ 102 µM).

Turning to `CN(C)CCCNC(NC(=O)/C=C/c1ccccc1)C(Cl)(Cl)Cl` (centres undefined), the kinetic solubility is 44.3 µg/mL (≈ 117 µM).

`O=C(COC(=O)CCC(=O)c1ccc(F)cc1)NCCc1ccccc1` showed a solubility (kinetic) of 49.1 µg/mL (≈ 137 µM).

In the case of `CC(=O)c1ccc(S(=O)(=O)N2CCN(CC#N)CC2)cc1`, the kinetic solubility amounted to 45.8 µg/mL (≈ 149 µM).

`CCOC(=O)c1c(O)cc(C)[nH]c1=O` yielded a kinetic solubility greater than 29.6 µg/mL.

The compound `Cc1cccc(-c2onc3ccc(C(=O)/C=C/N(C)C)cc23)c1` had a solubility (kinetic) of 3.3 µg/mL (≈ 10.8 µM).

`O=C(Cc1ccccc1)Nc1cc([N+](=O)[O-])ccc1N1CCOCC1` had a kinetic solubility of 9.8 µg/mL (≈ 28.7 µM).

As to `N#Cc1c(N)c(C(=O)c2ccccc2)n2ccccc12`, the kinetic solubility amounted to 31.4 µg/mL (≈ 120 µM).

For `Cc1cc(C(=O)OCC(=O)N(C)c2ccccc2)c(C)o1`, the solubility (kinetic) is greater than 43.1 µg/mL.

On to `CC(NC(=O)CN1C(=O)NC2(CCCCCCC2)C1=O)c1ccccc1` (centres undefined), for which the solubility (kinetic) was greater than 53.6 µg/mL.

The compound `COc1ccc(C(=O)COc2ccccc2C#N)cc1` registered a kinetic solubility of 3.6 µg/mL (≈ 13.5 µM).

On to `COc1ccccc1OCC(=O)NC1CCCc2ccccc21` (centres undefined), for which the kinetic solubility stood at 41.6 µg/mL (≈ 134 µM).

As to `CCCNC(=S)N1CCC(n2cnc3ccccc32)CC1`, the kinetic solubility was greater than 45.4 µg/mL.

As for `Cc1ccc(C(=O)Nc2nccc(C)n2)cc1`, the solubility (kinetic) came to 21.9 µg/mL (≈ 96.4 µM).

On to `O=S(=O)(Nc1ccc(-c2cn3ccccc3n2)cc1)c1ccccc1`, for which the solubility (kinetic) was determined as 1.5 µg/mL (≈ 4.29 µM).

The compound `CN1C(C(=O)Nc2ccccn2)=C(O)c2ccccc2S1(=O)=O` had a solubility (kinetic) greater than 49.7 µg/mL.

Compound `S=C(NCCc1c[nH]c2ccccc12)NC1CC1` gave a solubility (kinetic) greater than 38.9 µg/mL.

`CCOc1ccc(OCC(=O)OC(C)C(=O)NC2CCCC2)cc1` (centres undefined) displayed a solubility (kinetic) greater than 50.3 µg/mL.

For `O=C(Nc1cc(Cl)ccc1Cl)c1cc(-c2ccco2)on1`, the kinetic solubility amounted to 0.7 µg/mL (≈ 2.17 µM).

In turn, `COC(=O)CSC(=S)N1C(C)CCCC1C` (centres undefined) had a solubility (kinetic) of 31.1 µg/mL (≈ 119 µM).

`O=C(NCc1cccc(F)c1F)C1CCC(=O)N(C2CC2)C1` (centres undefined) displayed a solubility (kinetic) of 38.1 µg/mL (≈ 124 µM).

With `CCOc1cnc(-c2c(-c3c(F)cccc3Cl)noc2C)o1`, the solubility (kinetic) is 9.1 µg/mL (≈ 28.2 µM).

Compound `N#C/C(=C/Nc1ccccc1F)S(=O)(=O)c1ccc(Cl)cc1` returned a solubility (kinetic) of 2.1 µg/mL (≈ 6.24 µM).

Consider `CC(C)c1ccc(OCc2ccc(C(=O)N(C)C)o2)cc1`, for which the kinetic solubility was 33.2 µg/mL (≈ 116 µM).

Compound `N#Cc1c(-c2cccc(Cl)c2)[nH]c(=S)[nH]c1=O` registered a solubility (kinetic) greater than 39.6 µg/mL.

`CC1CN(C(=S)Nc2cccc(Cl)c2Cl)CC(C)O1` (centres undefined) showed a solubility (kinetic) of 18.9 µg/mL (≈ 59.2 µM).

The compound `CC12CN3CC(C)(CN(C1)C3c1ccc(F)cc1)C2` (centres undefined) gave a kinetic solubility of 26.2 µg/mL (≈ 101 µM).

For `CC(C)(C)NC(=O)C1CCC(CNc2c(N3CCCCC3)c(=O)c2=O)CC1` (centres undefined), the kinetic solubility was greater than 56.3 µg/mL.

The compound `CN1CCN(C(=O)CC2(CC(=O)O)CCCC2)CC1.Cl` yielded a solubility (kinetic) greater than 45.7 µg/mL.

Regarding `O=C1CN(C(=O)COC(=O)c2ccc(Cl)c(S(=O)(=O)N3CCCCC3)c2)c2ccccc2N1`, the solubility (kinetic) was 4.7 µg/mL (≈ 9.55 µM).

In turn, `CCN(C(=O)COc1ccccc1)C1CCCCC1` had a kinetic solubility of 37.4 µg/mL (≈ 143 µM).

`CN1CCN(CCC(=O)Nc2ccccc2)CC1` showed a solubility (kinetic) greater than 37.1 µg/mL.

In turn, `O=[N+]([O-])c1ccccc1CN1CCN(c2ncccn2)CC1` yielded a kinetic solubility of 34.8 µg/mL (≈ 116 µM).

Take `Cc1ccc(-c2nc(CNC(=O)c3ccco3)cs2)cc1`: the solubility (kinetic) was 42 µg/mL (≈ 141 µM).

The compound `Fc1cccc(NC(=S)N2CCc3ccccc32)c1` displayed a kinetic solubility of 6.3 µg/mL (≈ 23.1 µM).

On to `Cc1cc(C)cc(NC(=O)C2CCN(C(=O)c3cccs3)CC2)c1`, for which the solubility (kinetic) is greater than 51.4 µg/mL.

In the case of `CC1CCN(C2CC(=O)N(c3ccc(Br)cc3Br)C2=O)CC1` (centres undefined), the solubility (kinetic) turned out to be 40.4 µg/mL (≈ 93.9 µM).

On to `CN1CCN(S(=O)(=O)c2ccccc2)CC1`, for which the kinetic solubility came to 34.6 µg/mL (≈ 144 µM).

`COc1ccccc1-c1cc(C(=O)NC2CCCC2)no1` gave a solubility (kinetic) of 6.1 µg/mL (≈ 21.3 µM).

The compound `Cc1ccnc(NC(=O)c2ccc(C(=O)c3ccccc3)cc2)c1` displayed a solubility (kinetic) of 25.8 µg/mL (≈ 81.6 µM).

On to `COc1ccc(/C=C/c2cc(C(F)(F)F)on2)cc1`, for which the kinetic solubility stood at 1.3 µg/mL (≈ 4.83 µM).

Regarding `N#CCNC(=O)C1CC(=O)N(CCc2ccc(F)cc2)C1` (centres undefined), the solubility (kinetic) came out at 39.7 µg/mL (≈ 137 µM).

Compound `CCOc1ncccc1C(=O)OC(C)C(=O)Nc1ccc(CC)cc1` (centres undefined) gave a solubility (kinetic) of 7.1 µg/mL (≈ 20.7 µM).

For the compound `CN1C(C)(C)CC(NC(=O)c2ccco2)CC1(C)C`, the solubility (kinetic) was greater than 39.7 µg/mL.

For the compound `Cc1ccc(C(=O)OCC(=O)NCc2ccc(F)cc2)o1`, the solubility (kinetic) was greater than 43.7 µg/mL.

`Cc1ccc(C2CC2/C(=N/O)c2ccc(F)cc2)cc1` (centres undefined) displayed a kinetic solubility of 3.1 µg/mL (≈ 11.5 µM).

As for `O=S1(=O)CCC(NC(=S)Nc2ccccc2)C1` (centres undefined), the solubility (kinetic) is greater than 40.6 µg/mL.

Compound `COC(=O)C1CCN(C(=O)COC(=O)/C=C/c2ccc(O)c(OC)c2)CC1` came in with a solubility (kinetic) greater than 56.6 µg/mL.

The compound `CC1(c2ccccc2)CC(C)(C)N2C(=O)Cc3cccc1c32` (centres undefined) displayed a kinetic solubility of 6 µg/mL (≈ 20.6 µM).

With `CCc1ccc(N2C(=O)CN(Cc3cccs3)C2=S)cc1`, the solubility (kinetic) is less than 0.3 µg/mL.

In turn, `CCCCNC(=S)N1CCN(c2nc3ccccc3s2)CC1` yielded a kinetic solubility of 0.9 µg/mL (≈ 2.69 µM).
